# Earlier results as cited in paper PMC9851200, “Multiparameter phenotypic screening for endogenous TFEB and TFE3 translocation identifies novel chemical series modulating lysosome function” (Autophagy, 2022).
# Tests used:
# Design in all cases: method as in original PKIS2 published data
# [1] = target: T1, kinases (KINOMEscan panel) (Homo sapiens, UniProt Q8TBX8); settings: PIP4K2C; Published KINOMEscan; ref original PKIS2 published data; cited from earlier work
# T1 sequence (Q8TBX8 1-421): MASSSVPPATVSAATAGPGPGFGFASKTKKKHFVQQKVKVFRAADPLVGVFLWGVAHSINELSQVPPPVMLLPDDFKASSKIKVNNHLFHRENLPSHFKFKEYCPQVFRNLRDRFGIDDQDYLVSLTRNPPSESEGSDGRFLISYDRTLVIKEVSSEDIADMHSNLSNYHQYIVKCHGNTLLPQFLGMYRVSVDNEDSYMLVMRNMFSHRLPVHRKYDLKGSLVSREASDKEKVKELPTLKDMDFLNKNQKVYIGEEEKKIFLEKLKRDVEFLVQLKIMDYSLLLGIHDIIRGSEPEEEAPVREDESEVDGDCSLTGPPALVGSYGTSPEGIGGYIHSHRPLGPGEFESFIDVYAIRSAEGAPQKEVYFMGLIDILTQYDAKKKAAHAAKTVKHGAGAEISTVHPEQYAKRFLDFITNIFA
# [2] = target: T2, kinases (KINOMEscan panel) (Homo sapiens, UniProt Q59H18); settings: kinase TNNI3K; Published KINOMEscan; ref original PKIS2 published data; cited from earlier work
# T2 sequence (Q59H18 1-835): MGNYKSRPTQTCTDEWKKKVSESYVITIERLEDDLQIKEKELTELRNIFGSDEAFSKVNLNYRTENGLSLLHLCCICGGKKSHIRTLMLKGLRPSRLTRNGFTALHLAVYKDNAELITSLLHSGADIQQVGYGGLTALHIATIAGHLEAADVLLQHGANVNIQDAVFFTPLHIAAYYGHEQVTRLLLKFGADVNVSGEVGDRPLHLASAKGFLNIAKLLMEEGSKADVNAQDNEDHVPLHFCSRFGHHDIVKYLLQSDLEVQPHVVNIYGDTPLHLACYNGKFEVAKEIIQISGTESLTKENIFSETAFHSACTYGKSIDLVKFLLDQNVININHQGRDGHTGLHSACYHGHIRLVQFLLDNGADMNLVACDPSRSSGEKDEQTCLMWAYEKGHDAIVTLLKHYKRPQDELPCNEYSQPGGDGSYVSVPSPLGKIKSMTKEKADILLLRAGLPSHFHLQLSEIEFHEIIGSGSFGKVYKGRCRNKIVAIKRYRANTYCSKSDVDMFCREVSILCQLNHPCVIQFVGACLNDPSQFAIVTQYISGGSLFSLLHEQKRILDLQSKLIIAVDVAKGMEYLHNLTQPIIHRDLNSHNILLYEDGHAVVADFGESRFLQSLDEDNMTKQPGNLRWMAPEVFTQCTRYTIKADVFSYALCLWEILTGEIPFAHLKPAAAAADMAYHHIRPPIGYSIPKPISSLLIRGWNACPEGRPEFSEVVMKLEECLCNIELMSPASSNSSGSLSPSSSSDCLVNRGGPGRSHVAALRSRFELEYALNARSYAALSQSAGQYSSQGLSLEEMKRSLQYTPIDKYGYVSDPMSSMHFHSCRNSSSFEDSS
# [3] = target: kinases (KINOMEscan panel) (Homo sapiens, UniProt Q8NEV4); settings: kinase MYO3A; Published KINOMEscan; ref original PKIS2 published data; cited from earlier work
# [4] = target: T3, kinases (KINOMEscan panel) (Homo sapiens, UniProt O15530); settings: Published KINOMEscan; ref original PKIS2 published data; cited from earlier work
# T3 sequence (O15530 1-556): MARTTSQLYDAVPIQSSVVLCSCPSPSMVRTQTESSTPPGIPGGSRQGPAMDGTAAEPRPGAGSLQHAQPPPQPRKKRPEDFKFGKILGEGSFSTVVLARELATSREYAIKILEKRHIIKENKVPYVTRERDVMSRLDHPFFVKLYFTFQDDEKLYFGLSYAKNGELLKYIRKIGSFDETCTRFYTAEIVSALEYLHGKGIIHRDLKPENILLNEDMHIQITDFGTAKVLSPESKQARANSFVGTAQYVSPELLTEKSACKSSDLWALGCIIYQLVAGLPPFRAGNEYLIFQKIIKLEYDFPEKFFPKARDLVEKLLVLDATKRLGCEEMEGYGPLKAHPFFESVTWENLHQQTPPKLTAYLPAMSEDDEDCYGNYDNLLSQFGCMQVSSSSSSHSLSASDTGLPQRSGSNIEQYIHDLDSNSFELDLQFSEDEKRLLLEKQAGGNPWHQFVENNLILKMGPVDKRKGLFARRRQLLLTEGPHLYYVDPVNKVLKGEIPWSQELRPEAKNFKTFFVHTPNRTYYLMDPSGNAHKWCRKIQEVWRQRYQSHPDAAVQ
# kinases (KINOMEscan panel) (Homo sapiens, UniProt Q8NEV4), sequence (Q8NEV4 whole entry): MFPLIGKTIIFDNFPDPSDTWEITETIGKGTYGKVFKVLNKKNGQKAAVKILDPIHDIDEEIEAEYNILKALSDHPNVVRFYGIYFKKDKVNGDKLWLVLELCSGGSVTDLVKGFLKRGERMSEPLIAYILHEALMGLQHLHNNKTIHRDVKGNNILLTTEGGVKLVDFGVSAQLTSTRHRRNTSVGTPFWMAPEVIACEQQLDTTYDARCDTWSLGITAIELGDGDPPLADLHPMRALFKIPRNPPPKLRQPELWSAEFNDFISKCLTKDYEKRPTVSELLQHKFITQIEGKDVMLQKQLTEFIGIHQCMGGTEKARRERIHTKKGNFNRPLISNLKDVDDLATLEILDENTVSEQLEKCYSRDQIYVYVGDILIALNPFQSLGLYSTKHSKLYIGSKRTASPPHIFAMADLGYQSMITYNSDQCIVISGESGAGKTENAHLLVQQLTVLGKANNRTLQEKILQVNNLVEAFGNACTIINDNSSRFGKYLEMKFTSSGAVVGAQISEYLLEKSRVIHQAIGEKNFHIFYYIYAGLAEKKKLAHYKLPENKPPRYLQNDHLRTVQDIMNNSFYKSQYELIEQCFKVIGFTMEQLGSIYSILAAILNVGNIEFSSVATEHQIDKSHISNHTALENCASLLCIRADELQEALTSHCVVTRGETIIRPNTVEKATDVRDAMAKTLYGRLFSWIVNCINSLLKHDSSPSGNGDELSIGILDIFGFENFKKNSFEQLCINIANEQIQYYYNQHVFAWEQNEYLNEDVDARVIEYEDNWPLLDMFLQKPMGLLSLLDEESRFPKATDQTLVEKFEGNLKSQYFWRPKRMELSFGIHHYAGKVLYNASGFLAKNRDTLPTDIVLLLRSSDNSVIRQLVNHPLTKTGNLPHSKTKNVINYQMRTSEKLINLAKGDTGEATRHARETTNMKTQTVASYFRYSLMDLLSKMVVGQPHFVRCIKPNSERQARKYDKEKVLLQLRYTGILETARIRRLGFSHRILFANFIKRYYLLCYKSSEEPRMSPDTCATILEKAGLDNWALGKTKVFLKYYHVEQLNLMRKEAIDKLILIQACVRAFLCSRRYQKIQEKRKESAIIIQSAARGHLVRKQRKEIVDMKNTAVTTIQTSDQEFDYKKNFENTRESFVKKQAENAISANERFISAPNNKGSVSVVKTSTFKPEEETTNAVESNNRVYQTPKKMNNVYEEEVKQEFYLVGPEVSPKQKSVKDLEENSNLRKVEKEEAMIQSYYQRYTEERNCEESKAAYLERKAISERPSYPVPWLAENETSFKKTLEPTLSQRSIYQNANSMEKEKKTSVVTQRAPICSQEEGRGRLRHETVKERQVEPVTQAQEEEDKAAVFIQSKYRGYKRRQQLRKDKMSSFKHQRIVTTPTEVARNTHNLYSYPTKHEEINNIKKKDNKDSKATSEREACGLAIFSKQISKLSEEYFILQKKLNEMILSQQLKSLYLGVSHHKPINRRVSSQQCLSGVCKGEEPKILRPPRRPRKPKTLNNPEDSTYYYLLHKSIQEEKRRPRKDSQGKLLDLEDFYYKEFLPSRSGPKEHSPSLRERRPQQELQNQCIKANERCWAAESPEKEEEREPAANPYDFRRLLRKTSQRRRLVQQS
smiles,measurement,setting,value
Cc1cccc(-c2nc(Nc3ccncc3)c3ccccc3n2)n1 [NK215],KINOMEscan PIP4K2C,[1],18
same,KINOMEscan TNNI3K,[2],20
same,KINOMEscan MYO3A,[3],0
same,KINOMEscan PDPK1,[4],24
